This assay has as its target nsp14 methyltransferase from SARS-CoV-2 (Severe acute respiratory syndrome coronavirus 2, UniProt P0DTD1). The assay can be described thus: Nsp14 MTase activity inhibition in vitro (EchoMS assay). To be noted: recombinant nsp14 protein expressed in E. coli; dose-response curve. It counts as biochemical.

Broadly, the IC50 is the concentration at which inhibition is half-maximal. Regarding `CCCCCc1cn([C@@H]2O[C@H](CSCc3c(C)noc3-c3ccccc3)[C@@H](O)[C@H]2O)c2ncnc(N)c12` [Compound 132b, (2R,3R,4S,5S)-2-(4-Amino-5-pentyl-7H-pyrrolo[2,3-d]pyrimidin-7-yl)-5-((((3-methyl-5-phenylisoxazol-4-yl)methyl)thio)methyl)tetrahydrofuran-3,4-diol], the 50% inhibitory concentration (IC50) was 500 to 2000 nM.

`Cc1noc(-c2ccccc2)c1CSC[C@H]1O[C@@H](n2ccc3c(N)ncnc32)[C@H](O)[C@@H]1O` [Compound 47c, (2R,3R,4S,5S)-2-(4-Amino-7H-pyrrolo[2,3-d]pyrimidin-7-yl)-5-((((3-methyl-5-phenylisoxazol-4-yl)methyl)thio)methyl)tetrahydrofuran-3,4-diol]: the IC50 was in the range of 30 to 100 nM.

Turning to `Cc1noc(-c2ccccc2)c1CSC[C@H]1O[C@@H](n2nc(CCCC#N)c3c(N)ncnc32)[C@H](O)[C@@H]1O` [Compound 223b, 4-(4-Amino-1-((2R,3R,4S,5S)-3,4-dihydroxy-5-((((3-methyl-5-phenylisoxazol-4-yl)methyl)thio)methyl)tetrahydrofuran-2-yl)-1H-pyrazolo[3,4-d]pyrimidin-3-yl)butanenitrile], the half-maximal inhibitory concentration (IC50) fell in the range of 30 to 100 nM.

`Cc1noc(-c2ccccc2)c1CSC[C@H]1O[C@@H](n2ccc3c(N)nc(Cl)nc32)[C@H](O)[C@@H]1O` [Compound 204, (2R,3R,4S,5S)-2-(4-Amino-2-chloro-7H-pyrrolo[2,3-d]pyrimidin-7-yl)-5-((((3-methyl-5-phenylisoxazol-4-yl)methyl)thio)methyl)tetrahydrofuran-3,4-diol]: the IC50 is 10 to 30 nM.

As to `Cn1ncc(-c2ccccc2)c1CSC[C@H]1O[C@@H](n2ccc3c(N)ncnc32)[C@H](O)[C@@H]1O` [Compound 60c, (2R,3R,4S,5S)-2-(4-Amino-7H-pyrrolo[2,3-d]pyrimidin-7-yl)-5-((((1-methyl-4-phenyl-1H-pyrazol-5-yl)methyl)thio)methyl)tetrahydrofuran-3,4-diol], the IC50 fell in the range of 30 to 100 nM.

For `Cc1noc(-c2ccccc2)c1CSC[C@H]1O[C@@H](n2cc(-c3ccco3)c3c(N)ncnc32)[C@H](O)[C@@H]1O` [Compound 153], the concentration for half-maximal inhibition (IC50) lay in the range of 30 to 100 nM.

`Cc1noc(-c2ccccc2)c1CSC[C@H]1O[C@@H](n2nc(-c3cccc(C#N)c3)c3c(N)ncnc32)[C@H](O)[C@@H]1O` [Compound 220b, 3-(4-Amino-1-((2R,3R,4S,5S)-3,4-dihydroxy-5-((((3-methyl-5-phenylisoxazol-4-yl)methyl)thio)methyl)tetrahydrofuran-2-yl)-1H-pyrazolo[3,4-d]pyrimidin-3-yl)benzonitrile]: the IC50 is 100 to 500 nM.

As to `Cc1noc(-c2ccccc2)c1CSC[C@H]1O[C@@H](n2cc(C#Cc3nc4ccccc4[nH]3)c3c(N)ncnc32)[C@H](O)[C@@H]1O` [Compound 179b, (2R,3R,4S,5S)-2-(5-((1H-Benzo[d]imidazol-2-yl)ethynyl)-4-amino-7H-pyrrolo[2,3-d]pyrimidin-7-yl)-5-((((3-methyl-5-phenylisoxazol-4-yl)methyl)thio)methyl)tetrahydrofiiran-3,4-diol], the IC50 lay within 100 to 500 nM.

`Cc1noc(-c2ccccc2)c1CSC[C@H]1O[C@@H](n2cc(C3C[C@@H]4CC[C@H]3C4)c3c(N)ncnc32)[C@H](O)[C@@H]1O` (stereo in doubt) [Compound 136b, (2R,3R,4S,5S)-2-(4-Amino-5-((1S,4R)-bicyclo[2.2.1]heptan-2-yl)-7H-pyrrolo[2,3-d]pyrimidin-7-yl)-5-((((3-methyl-5-phenylisoxazol-4-yl)methyl)thio)methyl)tetrahydrofuran-3,4-diol]: the IC50 was in the range of 100 to 500 nM.

For the compound `Cc1noc(-c2ccccc2)c1CSC[C@H]1O[C@@H](n2ncc3c(N)ncnc32)[C@H](O)[C@@H]1O` [Compound 213, (2R,3R,4S,5S)-2-(4-Amino-1H-pyrazolo[3,4-d]pyrimidin-1-yl)-5-((((3-methyl-5-phenylisoxazol-4-yl)methyl)thio)methyl)tetrahydrofuran-3,4-diol], the IC50 lay within 30 to 100 nM.

Consider `Cc1cncc(-c2ccccc2)c1CSC[C@H]1O[C@@H](n2ccc3c(N)ncnc32)[C@H](O)[C@@H]1O` [Compound 57c, (2R,3R,4S,5S)-2-(4-Amino-7H-pyrrolo[2,3-d]pyrimidin-7-yl)-5-((((3-methyl-5-phenylpyridin-4-yl)methyl)thio)methyl)tetrahydrofuran-3,4-diol], for which the IC50 lay in the range of 30 to 100 nM.

Take `Cc1noc(-c2ccccc2)c1CSC[C@H]1O[C@@H](n2cc(-c3ccnn3C)c3c(N)ncnc32)[C@H](O)[C@@H]1O` [Compound 154]: the IC50 was 30 to 100 nM.

For the compound `CCC(C)c1cn([C@@H]2O[C@H](CSCc3c(C)noc3-c3ccccc3)[C@@H](O)[C@H]2O)c2ncnc(N)c12` (stereo partly drawn) [Compound 130b, (2R,3R,4S,5S)-2-(4-Amino-5-(sec-butyl)-7H-pyrrolo[2,3-d]pyrimidin-7-yl)-5-((((3-methyl-5-phenylisoxazol-4-yl)methyl)thio)methyl)tetrahydrofuran-3,4-diol], the IC50 fell in the range of 100 to 500 nM.

Turning to `Cc1csc(-c2ccccc2)c1CSC[C@H]1O[C@@H](n2ccc3c(N)ncnc32)[C@H](O)[C@@H]1O` [Compound 53c, (2R,3R,4S,5S)-2-(4-Amino-7H-pyrrolo[2,3-d]pyrimidin-7-yl)-5-((((4-methyl-2-phenylthiophen-3-yl)methyl)thio)methyl)tetrahydrofuran-3,4-diol], the IC50 was in the range of 100 to 500 nM.

For the compound `Cc1noc(-c2ccccc2)c1CSC[C@H]1O[C@@H](n2cc(-c3ccc(C(F)(F)F)cc3)c3c(N)ncnc32)[C@H](O)[C@@H]1O` [Compound 145b], the IC50 was 100 to 500 nM.

Turning to `COc1ccc(/C=C/c2cn([C@@H]3O[C@H](CSCc4c(C)noc4-c4ccccc4)[C@@H](O)[C@H]3O)c3ncnc(N)c23)cc1` [Compound 182b, (2R,3R,4S,5S)-2-(4-Amino-5-((E)-4-methoxystyryl)-7H-pyrrolo[2,3-d]pyrimidin-7-yl)-5-((((3-methyl-5-phenylisoxazol-4-yl)methyl)thio)methyl)tetrahydrofuran-3,4-diol], the 50% inhibitory concentration (IC50) was in the range of 30 to 100 nM.

For the compound `Cc1noc(-c2ccccc2)c1CSC[C@H]1O[C@@H](n2cc(I)c3c(N)ncnc32)[C@H](O)[C@@H]1O` [Compound 123, (2R,3R,4S,5S)-2-(4-Amino-5-iodo-7H-pyrrolo[2,3-d]pyrimidin-7-yl)-5-((((3-methyl-5-phenylisoxazol-4-yl)methyl)thio)methyl)tetrahydrofuran-3,4-diol], the half-inhibitory concentration (IC50) lay in the range of 30 to 100 nM.

With `Cc1ncnc(-c2ccc3c(c2)OCO3)c1CSC[C@H]1O[C@@H](n2ccc3c(N)ncnc32)[C@H](O)[C@@H]1O` [Compound 102c, (2R,3R,4S,5S)-2-(4-Amino-7H-pyrrolo[2,3-d]pyrimidin-7-yl)-5-((((4-(benzo[d][1,3]dioxol-5-yl)-6-methylpyrimidin-5-yl)methyl)thio)methyl)tetrahydrofuran-3,4-diol], the IC50 lay in the range of 30 to 100 nM.

For `Cn1cnc(-c2ccccc2)c1CSC[C@H]1O[C@@H](n2cc(I)c3c(N)ncnc32)[C@H](O)[C@@H]1O` [Compound 244, (2R,3R,4S,5S)-2-(4-Amino-5-iodo-7H-pyrrolo[2,3-d]pyrimidin-7-yl)-5-((((1-methyl-4-phenyl-1H-imidazol-5-yl)methyl)thio)methyl)tetrahydrofuran-3,4-diol], the IC50 lay within 10 to 30 nM.

Consider `Cc1noc(-c2ccc(N)cc2)c1CSC[C@H]1O[C@@H](n2cc(-c3ccc(C#N)cc3)c3c(N)ncnc32)[C@H](O)[C@@H]1O` [Compound 234b, 4-(4-Amino-7-((2R,3R,4S,5S)-5-((((5-(4-aminophenyl)-3-methylisoxazol-4-yl)methyl)thio)methyl)-3,4-dihydroxytetrahydrofuran-2-yl)-7H-pyrrolo[2,3-d]pyrimidin-5-yl)benzonitrile], for which the IC50 was in the range of 10 to 30 nM.

In the case of `Cc1noc(-c2ccccc2)c1CSC[C@H]1O[C@@H](n2cc(C3CCCCC3)c3c(N)ncnc32)[C@H](O)[C@@H]1O` [Compound 134b, (2R,3R,4S,5S)-2-(4-Amino-5-cyclohexyl-7H-pyrrolo[2,3-d]pyrimidin-7-yl)-5-((((3-methyl-5-phenylisoxazol-4-yl)methyl)thio)methyl)tetrahydrofuran-3,4-diol], the IC50 fell in the range of 100 to 500 nM.

Turning to `CCc1onc(-c2ccccc2)c1CSC[C@H]1O[C@@H](n2ccc3c(N)ncnc32)[C@H](O)[C@@H]1O` [Compound 106c, (2R,3R,4S,5S)-2-(4-Amino-7H-pyrrolo[2,3-d]pyrimidin-7-yl)-5-((((5-ethyl-3-phenyllsoxazol-4-yl)methyl)thio)methyl)tetrahydrofuran-3,4-diol], the IC50 fell in the range of 100 to 500 nM.

`Cc1noc(-c2ccc(N)cc2)c1CSC[C@H]1O[C@@H](n2ccc3c(N)ncnc32)[C@H](O)[C@@H]1O` [Compound 111, (2R,3R,4S,5S)-2-(4-Amino-7H-pyrrolo[2,3-d]pyrimidin-7-yl)-5-((((5-(4-aminophenyl)-3-methylisoxazol-4-yl)methyl)thio)methyl)tetrahydrofuran-3,4-diol]: the half-maximal inhibitory concentration (IC50) was in the range of 30 to 100 nM.

`COc1ncnc(-c2ccccc2)c1CSC[C@H]1O[C@@H](n2ccc3c(N)ncnc32)[C@H](O)[C@@H]1O` [Compound 110c, (2R,3R,4S,5S)-2-(4-Amino-7H-pyrrolo[2,3-d]pyrimidin-7-yl)-5-((((4-methoxy-6-phenylpyrimidin-5-yl)methyl)thio)methyl)tetrahydrofuran-3,4-diol]: the 50% inhibitory concentration (IC50) lay within 500 to 2000 nM.

Regarding `Cc1noc(-c2ccccc2)c1CSC[C@H]1O[C@@H](n2cc(CC3CCCCC3)c3c(N)ncnc32)[C@H](O)[C@@H]1O` [Compound 135b, (2R,3R,4S,5S)-2-(4-Amino-5-(cyclohexylmethyl)-7H-pyrrolo[2,3-d]pyrimidin-7-yl)-5-((((3-methyl-5-phenylisoxazol-4-yl)methyl)thio)methyl)tetrahydrofuran-3,4-diol], the IC50 was 500 to 2000 nM.

Turning to `Cc1ccc(-c2onc(C)c2CSC[C@H]2O[C@@H](n3ccc4c(N)ncnc43)[C@H](O)[C@@H]2O)cc1C` [Compound 95c, (2R,3R,4S,5S)-2-(4-Amino-7H-pyrrolo[2,3-d]pyrimidin-7-yl)-5-((((5-(3,4-dimethylphenyl)-3-methylisoxazol-4-yl)methyl)thio)methyl)tetrahydrofuran-3,4-diol], the half-inhibitory concentration (IC50) lay in the range of 10 to 30 nM.

The values above are taken from patent publication EP4553080A1, “NUCLEOSIDE DERIVATIVES AS ANTIVIRAL AGENTS AGAINST CORONAVIRUSES” (Ustav Organicke Chemie a Biochemie AV CR, v.v.i., priority 2023, dated 2025).
